Measurements published in patent US10933057B2 (priority 2017, dated 2021).

System: patients
Parameters: species or system human
Details: in vivo

CCCCC(C)(O)C/C=C/[C@H]1[C@H](O)CC(=O)[C@@H]1CCCCCCC(=O)OC (mixture of isomers) [Misoprostol]
Pain (No pain −, Pain +): +
